System: Energy system protein genes
Test: DNA chip mRNA expression in yeast, energy system protein genes (Table 4)
Format: cell-based, Saccharomyces cerevisiae S288C
Procedure, shortened: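 Ratios compare mRNA levels in stressed and control S. cerevisiae. Each toxicant was applied for two hours to log-phase cultures at 25° C. at a sub-lethal, growth-inhibiting level; fluorescent cDNA (Cy3- or Cy5-dUTP) was hybridized to a genome-wide yeast chip for over 12 h at 65° C.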

CCCCC[C@H](O)CC(=O)CCc1ccc(O)c(OC)c1 [(13), gingerol]
The level of expressed mRNA in the presence of chemical substance/The level of expressed mRNA in the absence of chemical substance (yeast gene YAL038W): 1.8
The level of expressed mRNA in the presence of chemical substance/The level of expressed mRNA in the absence of chemical substance (yeast gene YAL054C): 1.8
The level of expressed mRNA in the presence of chemical substance/The level of expressed mRNA in the absence of chemical substance (yeast gene YAL060W): 2.2
The level of expressed mRNA in the presence of chemical substance/The level of expressed mRNA in the absence of chemical substance (yeast gene YBL058W, cells incubated two hours with the chemical substance): 1.6
The level of expressed mRNA in the presence of chemical substance/The level of expressed mRNA in the absence of chemical substance (yeast gene YBR126C): 2.1
The level of expressed mRNA in the presence of chemical substance/The level of expressed mRNA in the absence of chemical substance (yeast gene YBR145W): 2.0
The level of expressed mRNA in the presence of chemical substance/The level of expressed mRNA in the absence of chemical substance (yeast gene YBR185C, cells incubated two hours with the chemical substance): 1.0
The level of expressed mRNA in the presence of chemical substance/The level of expressed mRNA in the absence of chemical substance (yeast gene YBR196C): 1.4
The level of expressed mRNA in the presence of chemical substance/The level of expressed mRNA in the absence of chemical substance (yeast gene YBR299W): 0.7
The level of expressed mRNA in the presence of chemical substance/The level of expressed mRNA in the absence of chemical substance (yeast gene YCR005C): 0.7
The level of expressed mRNA in the presence of chemical substance/The level of expressed mRNA in the absence of chemical substance (yeast gene YCR046C, cells incubated two hours with the chemical substance): 1.5
The level of expressed mRNA in the presence of chemical substance/The level of expressed mRNA in the absence of chemical substance (yeast gene YCR107W): 4.0
The level of expressed mRNA in the presence of chemical substance/The level of expressed mRNA in the absence of chemical substance (yeast gene YDL067C, cells incubated two hours with the chemical substance): 0.6
The level of expressed mRNA in the presence of chemical substance/The level of expressed mRNA in the absence of chemical substance (yeast gene YDL078C, cells incubated two hours with the chemical substance): 1.0
The level of expressed mRNA in the presence of chemical substance/The level of expressed mRNA in the absence of chemical substance (yeast gene YDL107W, cells incubated two hours with the chemical substance): 1.2
The level of expressed mRNA in the presence of chemical substance/The level of expressed mRNA in the absence of chemical substance (yeast gene YDL174C): 5.9
The level of expressed mRNA in the presence of chemical substance/The level of expressed mRNA in the absence of chemical substance (yeast gene YDR001C): 2.8
The level of expressed mRNA in the presence of chemical substance/The level of expressed mRNA in the absence of chemical substance (yeast gene YDR231C): 2.4
The level of expressed mRNA in the presence of chemical substance/The level of expressed mRNA in the absence of chemical substance (yeast gene YDR298C, cells incubated two hours with the chemical substance): 1.2
The level of expressed mRNA in the presence of chemical substance/The level of expressed mRNA in the absence of chemical substance (yeast gene YDR377W, cells incubated two hours with the chemical substance): 0.7
The level of expressed mRNA in the presence of chemical substance/The level of expressed mRNA in the absence of chemical substance (yeast gene YDR380W): 0.4
The level of expressed mRNA in the presence of chemical substance/The level of expressed mRNA in the absence of chemical substance (yeast gene YDR529C, cells incubated two hours with the chemical substance): 0.7
The level of expressed mRNA in the presence of chemical substance/The level of expressed mRNA in the absence of chemical substance (yeast gene YEL011W): 1.5
The level of expressed mRNA in the presence of chemical substance/The level of expressed mRNA in the absence of chemical substance (yeast gene YEL020C): 1.2
The level of expressed mRNA in the presence of chemical substance/The level of expressed mRNA in the absence of chemical substance (yeast gene YEL024W, cells incubated two hours with the chemical substance): 0.6
The level of expressed mRNA in the presence of chemical substance/The level of expressed mRNA in the absence of chemical substance (yeast gene YEL047C, cells incubated two hours with the chemical substance): 1.6
The level of expressed mRNA in the presence of chemical substance/The level of expressed mRNA in the absence of chemical substance (yeast gene YEL071W, cells incubated two hours with the chemical substance): 1.6
The level of expressed mRNA in the presence of chemical substance/The level of expressed mRNA in the absence of chemical substance (yeast gene YER178W): 2.4
The level of expressed mRNA in the presence of chemical substance/The level of expressed mRNA in the absence of chemical substance (yeast gene YFR015C): 2.5
The level of expressed mRNA in the presence of chemical substance/The level of expressed mRNA in the absence of chemical substance (yeast gene YFR053C): 3.0
The level of expressed mRNA in the presence of chemical substance/The level of expressed mRNA in the absence of chemical substance (yeast gene YGL134W): 0.7
The level of expressed mRNA in the presence of chemical substance/The level of expressed mRNA in the absence of chemical substance (yeast gene YGL187C, cells incubated two hours with the chemical substance): 0.7
The level of expressed mRNA in the presence of chemical substance/The level of expressed mRNA in the absence of chemical substance (yeast gene YGL191W, cells incubated two hours with the chemical substance): 1.1
The level of expressed mRNA in the presence of chemical substance/The level of expressed mRNA in the absence of chemical substance (yeast gene YGL205W, cells incubated two hours with the chemical substance): 1.0
The level of expressed mRNA in the presence of chemical substance/The level of expressed mRNA in the absence of chemical substance (yeast gene YGL253W): 1.5
The level of expressed mRNA in the presence of chemical substance/The level of expressed mRNA in the absence of chemical substance (yeast gene YGR008C): 3.4
The level of expressed mRNA in the presence of chemical substance/The level of expressed mRNA in the absence of chemical substance (yeast gene YGR062C, cells incubated two hours with the chemical substance, 25° C., YPD medium): 1.5
The level of expressed mRNA in the presence of chemical substance/The level of expressed mRNA in the absence of chemical substance (yeast gene YGR112W, cells incubated two hours with the chemical substance): 1.1
The level of expressed mRNA in the presence of chemical substance/The level of expressed mRNA in the absence of chemical substance (yeast gene YGR192C): 3.4
The level of expressed mRNA in the presence of chemical substance/The level of expressed mRNA in the absence of chemical substance (yeast gene YGR207C): 1.0
The level of expressed mRNA in the presence of chemical substance/The level of expressed mRNA in the absence of chemical substance (yeast gene YGR244C): 2.6
The level of expressed mRNA in the presence of chemical substance/The level of expressed mRNA in the absence of chemical substance (yeast gene YGR254W): 3.1
The level of expressed mRNA in the presence of chemical substance/The level of expressed mRNA in the absence of chemical substance (yeast gene YHL008C): 1.8
The level of expressed mRNA in the presence of chemical substance/The level of expressed mRNA in the absence of chemical substance (yeast gene YHR179W): 2.6
The level of expressed mRNA in the presence of chemical substance/The level of expressed mRNA in the absence of chemical substance (yeast gene YIL045W): 2.0
The level of expressed mRNA in the presence of chemical substance/The level of expressed mRNA in the absence of chemical substance (yeast gene YIL111W): 1.7
The level of expressed mRNA in the presence of chemical substance/The level of expressed mRNA in the absence of chemical substance (yeast gene YIL160C): 2.3
The level of expressed mRNA in the presence of chemical substance/The level of expressed mRNA in the absence of chemical substance (yeast gene YIL172C): 2.0

From patent US8192962B2, “Processes for detecting toxic substances” (Daikin Industries, Ltd., priority 2001, dated 2012)
